Source: patent publication US20020098213A1, “USE OF ELLAGIC ACID AND ITS DERIVATIVES IN COSMETICS AND DERMATOLOGY” (priority 1997, published 2002)

What was measured:
[1] = tested on: collagen VII in a culture of normal human keratinocytes; test: ELISA of collagen VII in supernatants of normal human keratinocyte cultures; assay type: cell-based; details: ellagic acid 0.5 μg/ml; for RODC for 72 h of incubation: reduced optical density corrected to 100 μg cellular proteins; for A for 72 h of incubation (activity on the proportion of collagen VII): relative to control culture
[2] = tested on: normal human keratinocytes; test: XTT viability test and microscopic observation of the cells; assay type: cell-based; details: test concentration 0.5 μg per ml; plate treated in parallel
Experimental: The cells are inoculated in a 96-well culture plate at a rate of 25,000 NHK per well in SFMc. After incubation for 24 h, which is necessary for good adhesion of the cells, the medium is replaced with SFMc diluted to 2% to limit the proliferation of the keratinocytes during the test. The test concentration of ellagic acid is 0.5 microgram per ml of test medium, which is obtained immediately beforehand from a stock solution containing 0.5 mg of ellagic acid per ml of DMSO. The final concentration of DMSO in the test medium is therefore 0.1% V/Vfinal. This concentration is not toxic to the cells. The control consists of SFMc test medium diluted to 2%, to which 0.1% V/V of DMSO has been added. Six cultures are prepared for the test product and six for the control experiment.
A plate treated in parallel is used for the XTT viability test with the XTT kit from Boehringer, reference 146 50 15, in order to measure the mitochondrial dehydrogenase activity of the viable cells.

**Q.** For O=c1oc2c(O)c(O)cc3c(=O)oc4c(O)c(O)cc1c4c23 [Ellagic acid, 2,3,7,8-tetrahydroxy(1)-benzopyrano-pyrano (5,4,3-cde)(1)benzopyran-5,10-dione], which “RODC for 72 h of incubation” value ([1]; NHK 1106P1 (face-lift)) is on record?
**A.** 1.563 ± 0.240

**Q.** What about the “A for 72 h of incubation (activity on the proportion of collagen VII)” value ([1]; NHK 1106P1 (face-lift)) of the same molecule?
**A.** +64%

**Q.** What about the “RODC for 72 h of incubation” value ([1]; NHK 1124P2 (face-lift)) of the same molecule?
**A.** 1.098 ± 0.100

**Q.** What about the “A for 72 h of incubation (activity on the proportion of collagen VII)” value ([1]; NHK 1124P2 (face-lift)) of the same molecule?
**A.** +42%

**Q.** What about the “proportion of collagen VII present in the culture media” value ([1]; both strains) of the same molecule?
**A.** large and significant increase

**Q.** What about the “viability (mitochondrial dehydrogenase activity of viable cells, XTT; microscopic observation)” value [2] of the same molecule?
**A.** No significant drop in viability
